Laboratory results as given in patent US10934274B2, “Quinoline derivatives as TAM RTK inhibitors” (Qurient Co., Ltd., priority 2015, dated 2021).

Tests used:
[1] = tested on: Axl phosphorylation in transiently transfected HEK293T cells; assay: Cellular Axl phosphorylation assay; type: cell-based; settings: Homo sapiens, HEK-293T; HEK293T cells transfected with Axl, 1 hour compound treatment, Phospho-Axl vs Total-Axl
In short: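 Axl-RTK was overexpressed by transfection in HEK293T cells to drive trans-autophosphorylation; cells were exposed to test compound for 1 hour. Phospho-Axl and total Axl were captured in lysates and detected by MSD electrochemiluminescence. IC50 was set between the DMSO group and the empty-vector-transfected minimum.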

[2] = target: T1, TYRO3 (Homo sapiens, UniProt Q06418); assay: LanthaScreen Eu kinase binding assay, TYRO3; settings: Tracer 236
T1 construct: purchased Life Technologies
T1 sequence (Q06418 41-890): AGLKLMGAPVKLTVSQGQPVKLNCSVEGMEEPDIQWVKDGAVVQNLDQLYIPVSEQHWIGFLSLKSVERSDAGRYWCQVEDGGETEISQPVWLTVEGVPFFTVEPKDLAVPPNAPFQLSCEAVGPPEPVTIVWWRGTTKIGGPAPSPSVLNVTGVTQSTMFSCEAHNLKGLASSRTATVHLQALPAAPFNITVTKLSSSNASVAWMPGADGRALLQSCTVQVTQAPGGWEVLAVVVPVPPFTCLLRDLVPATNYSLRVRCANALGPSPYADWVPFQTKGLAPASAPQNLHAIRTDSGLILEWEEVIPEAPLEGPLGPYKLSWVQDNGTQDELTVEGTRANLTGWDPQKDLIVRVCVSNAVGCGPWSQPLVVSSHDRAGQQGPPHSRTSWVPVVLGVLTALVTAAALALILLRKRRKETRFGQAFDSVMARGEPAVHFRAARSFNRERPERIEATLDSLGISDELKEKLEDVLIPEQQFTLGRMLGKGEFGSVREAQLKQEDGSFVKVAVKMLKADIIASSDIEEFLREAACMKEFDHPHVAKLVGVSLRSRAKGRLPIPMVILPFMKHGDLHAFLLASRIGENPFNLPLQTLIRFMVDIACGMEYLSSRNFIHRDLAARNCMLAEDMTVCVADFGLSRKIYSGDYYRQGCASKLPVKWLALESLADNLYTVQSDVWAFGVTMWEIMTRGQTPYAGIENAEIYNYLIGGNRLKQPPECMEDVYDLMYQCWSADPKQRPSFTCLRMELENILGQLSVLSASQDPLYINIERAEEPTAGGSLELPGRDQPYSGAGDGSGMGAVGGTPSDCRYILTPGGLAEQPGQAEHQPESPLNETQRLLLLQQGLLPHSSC

[3] = tested on: HCC827/ER cells; assay: WST-1 cell viability assay in erlotinib-resistant cells; settings: compound combined with Erlotinib at constant 1:1 ratio, 3 days, FBS 1%
Description: The killed cells were discarded and the remaining cells were cultured in a drug-free medium up to 80% confluence. Subsequently, cells were continuously exposed to increasing drug doses of up to 10 μM over a period of 8 months.
HCC827/ER cells were seeded in a 96-well plate with their respective media containing 10% FBS at 5000 cells/well. After seeding, the HCC827/ER cells were incubated for approximately 24 hours. […] The viability of the HCC827/ER cells was determined by adding WST-1 reagent according to Manufacturer's instructions (DoGenbio co., Ltd) and incubating for four hours. The plates were then read using an absorbance of 440 nm on Tecan Microplate reader (Infinite M200 pro, TECAN). The HCC827/ER cells' viability were calculated relative to vehicle (DMSO) control wells.

Kd [2] | Structure (SMILES) | IC50 [1] | Combination effect of compound and erlotinib on inhibition activity in Erlotinib-resistant cell-line [3]
100 to 1000 nM | CCOc1cn(CCOC(F)F)nc1C(=O)Nc1ccc(Oc2ccnc3cc(OC)c(OC)cc23)cn1 [Compound 86] | < 100 nM | –
< 100 nM | CCOc1cn(-c2ccc(Cl)cc2C)nc1C(=O)Nc1ccc(Oc2ccnc3cc(OC)c(OC)cc23)cn1 [Compound 87] | < 100 nM | –
< 100 nM | CCOc1cn(-c2ccc(F)cc2)nc1C(=O)Nc1ccc(Oc2ccnc3cc(OC)c(OC)cc23)cn1 [Compound 89] | < 100 nM | –
< 100 nM | CCOc1cn(-c2c(C)cc(OC)cc2C)nc1C(=O)Nc1ccc(Oc2ccnc3cc(OC)c(OC)cc23)cn1 [Compound 92] | < 100 nM | –
100 to 1000 nM | CCOc1cn(-c2ncc(N)cn2)nc1C(=O)Nc1ccc(Oc2ccnc3cc(OC)c(OC)cc23)cn1 [Compound 93] | < 100 nM | –

The remaining lines, values behind:

Structure (SMILES) | Kd [2] | IC50 [1] | Combination effect of compound and erlotinib on inhibition activity in Erlotinib-resistant cell-line [3]
CCOc1cn(C2CCCC2)nc1C(=O)Nc1ccc(Oc2ccnc3cc(OC)c(OC)cc23)cn1 [Compound 3] | < 100 nM | < 100 nM | –
CCOc1cn(-c2ccccn2)nc1C(=O)Nc1ccc(Oc2ccnc3cc(OC)c(OC)cc23)cn1 [Compound 4] | 100 to 1000 nM | < 100 nM | –
CCOc1cn(-c2cccnn2)nc1C(=O)Nc1ccc(Oc2ccnc3cc(OC)c(OC)cc23)cn1 [Compound 5] | < 100 nM | < 100 nM | –
CCOc1cn(C2CCOC2)nc1C(=O)Nc1ccc(Oc2ccnc3cc(OC)c(OC)cc23)cn1 (centres unmarked) [Compound 76] | < 100 nM | < 100 nM | –
CCOc1cn(-c2cnccc2C)nc1C(=O)Nc1ccc(Oc2ccnc3cc(OC)c(OC)cc23)cn1 [Compound 79] | < 100 nM | < 100 nM | synergistic effect
CCOc1cn(CCC#N)nc1C(=O)Nc1ccc(Oc2ccnc3cc(OC)c(OC)cc23)cn1 [Compound 80] | 100 to 1000 nM | < 100 nM | –
CCOc1cn(C(C)CC#N)nc1C(=O)Nc1ccc(Oc2ccnc3cc(OC)c(OC)cc23)cn1 (centres unmarked) [Compound 81] | 100 to 1000 nM | < 100 nM | –
CCOc1cn(-c2ccc(F)cc2C)nc1C(=O)Nc1ccc(Oc2ccnc3cc(OC)c(OC)cc23)c(Cl)c1 [Compound 82] | < 100 nM | < 100 nM | –
CCOc1cn(-c2cccnc2)nc1C(=O)Nc1ccc(Oc2ccnc3cc(OC)c(OC)cc23)cc1F [Compound 85] | 100 to 1000 nM | < 100 nM | –
